“And” between values parts separate entries of the source, which are not always exact repeats. Equal entries are not always repeated. Records with an inconclusive call do not appear.
Tested on: MX-1 breast xenograft, intrarenal, nude mice, tumor weight
Assay: NCI In Vivo Anticancer Drug Screen. Data for tumor model Human Mammary Carcinoma MX-1 Xenograft (intrarenal inoculation) in NU/NU BALB/C (nude) mice
Settings: endpoint: mean tumor weight change, higher = larger tumour
How it was run: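 Compounds were given to mice carrying transplanted tumors, and tumor size or survival was measured. Each value is the treated-group measurement (T) divided by the vehicle-treated control-group measurement (C).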

[1] = dose: 12.5 mg/kg/injection, schedule: Q04DX003 (ip), vehicle: water
[2] = dose: 25.0 mg/kg/injection, schedule: Q04DX003 (ip), vehicle: water
[3] = dose: 50.0 mg/kg/injection, schedule: Q04DX003 (ip), vehicle: water
[4] = dose: 100.0 mg/kg/injection, schedule: Q04DX003 (ip), vehicle: water
[5] = dose: 150.0 mg/kg/injection, schedule: Q04DX003 (ip), vehicle: saline with Tween-80
[6] = dose: 200.0 mg/kg/injection, schedule: Q04DX003 (sc), vehicle: Klucel (hydroxypropylcellulose) (HPC)
[7] = dose: 25.0 mg/kg/injection, schedule: Q04DX003 (ip), vehicle: saline
[8] = dose: 50.0 mg/kg/injection, schedule: Q04DX003 (ip), vehicle: saline

With COC1=C(C)C(=O)C2=C(C1=O)C(CO)N1C(C#N)C3CC4C(C1C2N1CCOC41)N3C (stereo unspecified) the T/C (dose: 0.9 mg/kg/injection, schedule: Q04DX003 (ip), vehicle: acid diluted with saline) was 55 % of control, the T/C (dose: 1.25 mg/kg/injection, schedule: Q04DX003 (ip), vehicle: acid diluted with saline) was 35 % of control and the T/C (dose: 1.5 mg/kg/injection, schedule: Q04DX003 (ip), vehicle: acid diluted with saline) was 19 % of control. The T/C (dose: 2.5 mg/kg/injection, schedule: Q04DX003 (ip), vehicle: acid diluted with saline) was 17 % of control and 19 % of control, the T/C (dose: 2.5 mg/kg/injection, schedule: Q04DX003 (ip), vehicle: saline + alcohol) was 50 % of control and the T/C (dose: 5.0 mg/kg/injection, schedule: Q04DX003 (ip), vehicle: saline + alcohol) was 42 % of control.

For COc1cc(Cc2nccc3cc(OC)c(OC)cc23)c(C(C)=O)cc1OC, the T/C (dose: 300.0 mg/kg/injection, schedule: Q04DX003 (sc), vehicle: saline) was 54 % of control, the T/C (dose: 600.0 mg/kg/injection, schedule: Q04DX003 (sc), vehicle: saline) was 68 % of control and the T/C (dose: 1200.0 mg/kg/injection, schedule: Q04DX003 (sc), vehicle: saline) was 48 % of control.

With Oc1cc(O)cc(/C=C/c2ccc(O)c(O)c2)c1 the T/C (dose: 25.0 mg/kg/injection, schedule: Q04DX003 (ip), vehicle: DMSO) was 90 % of control, the T/C (dose: 37.5 mg/kg/injection, schedule: Q04DX003 (ip), vehicle: DMSO) was 123 % of control and the T/C (dose: 50.0 mg/kg/injection, schedule: Q04DX003 (ip), vehicle: DMSO) was 69 % of control. The T/C (dose: 75.0 mg/kg/injection, schedule: Q04DX003 (ip), vehicle: DMSO) was 71 % of control, the T/C (dose: 100.0 mg/kg/injection, schedule: Q04DX003 (ip), vehicle: DMSO) was 48 % of control and the T/C (dose: 150.0 mg/kg/injection, schedule: Q04DX003 (ip), vehicle: DMSO) was 67 % of control.

With COc1cc2c(c(OC)c1OC)-c1ccc(OC)c(=O)cc1[C@@H](NC(=O)CCl)CC2 the T/C (dose: 0.5 mg/kg/injection, schedule: Q04DX003 (sc), vehicle: saline with Tween-80) was 87 % of control, the T/C (dose: 1.0 mg/kg/injection, schedule: Q04DX003 (sc), vehicle: saline with Tween-80) was 43 % of control and the T/C (dose: 2.0 mg/kg/injection, schedule: Q04DX003 (sc), vehicle: saline with Tween-80) was 8 % of control. The T/C (dose: 4.0 mg/kg/injection, schedule: Q04DX003 (sc), vehicle: saline with Tween-80) was 1 % of control.

With NC(CSSCC(N)C(=O)O)C(=O)O (stereo unspecified) the T/C (dose: 300.0 mg/kg/injection, schedule: Q04DX003 (ip), vehicle: saline) was 88 % of control, the T/C (dose: 600.0 mg/kg/injection, schedule: Q04DX003 (ip), vehicle: saline) was 92 % of control and the T/C (dose: 1200.0 mg/kg/injection, schedule: Q04DX003 (ip), vehicle: saline) was 104 % of control. The T/C (dose: 2400.0 mg/kg/injection, schedule: Q04DX003 (ip), vehicle: saline) was 80 % of control.

In the case of [Cl][Pt][Cl].[NH-]C(CO)C(=O)O (stereo unspecified), the T/C [1] is reported as 92 % of control, the T/C [2] is reported as 100 % of control and the T/C (dose: 37.5 mg/kg/injection, schedule: Q04DX003 (ip), vehicle: water) is reported as 57 % of control. The T/C [3] was 100 % of control, the T/C (dose: 75.0 mg/kg/injection, schedule: Q04DX003 (ip), vehicle: water) was 11 % of control and the T/C [4] was 16 % of control.

With CCCCCCCCCCCCCCCCCCOCC(CO)OC (stereo unspecified) the T/C [5] was 117 % of control, the T/C (dose: 300.0 mg/kg/injection, schedule: Q04DX003 (ip), vehicle: saline with Tween-80) was 93 % of control and the T/C (dose: 600.0 mg/kg/injection, schedule: Q04DX003 (ip), vehicle: saline with Tween-80) was 81 % of control. For the same compound, the T/C (dose: 1200.0 mg/kg/injection, schedule: Q04DX003 (ip), vehicle: saline with Tween-80) was 46 % of control.

In the case of NC(=S=O)C(N)=S=O, the T/C (dose: 125.0 mg/kg/injection, schedule: Q04DX003 (ip), vehicle: saline with Tween-80) is reported as 42 % of control, the T/C (dose: 250.0 mg/kg/injection, schedule: Q04DX003 (ip), vehicle: saline with Tween-80) is reported as 65 % of control and the T/C (dose: 500.0 mg/kg/injection, schedule: Q04DX003 (ip), vehicle: saline with Tween-80) is reported as 60 % of control.

With C=CC1(C)CC(=O)C2(O)C(C)(O1)C(OC(C)=O)C(O)C1C(C)(C)CCC(O)C12C (stereo unspecified) the T/C (dose: 8.0 mg/kg/injection, schedule: Q04DX003 (ip), vehicle: DMSO) was 159 % of control, the T/C (dose: 16.0 mg/kg/injection, schedule: Q04DX003 (ip), vehicle: DMSO) was 100 % of control and 115 % of control and the T/C (dose: 64.0 mg/kg/injection, schedule: Q04DX003 (ip), vehicle: DMSO) was 109 % of control.

CS(=O)(=O)OCCN(CCOS(C)(=O)=O)c1ccc(C=Nc2ccc(-c3csc(COc4ccccc4)n3)cc2)cc1 was tested, and the T/C (dose: 50.0 mg/kg/injection, schedule: Q01DX010 (sc), vehicle: Klucel (hydroxypropylcellulose) (HPC)) was 13 % of control, the T/C (dose: 100.0 mg/kg/injection, schedule: Q01DX010 (sc), vehicle: Klucel (hydroxypropylcellulose) (HPC)) was -6 % of control and the T/C (dose: 100.0 mg/kg/injection, schedule: Q04DX003 (ip), vehicle: Klucel (hydroxypropylcellulose) (HPC)) was 24 % of control. For the same compound, the T/C (dose: 100.0 mg/kg/injection, schedule: Q04DX003 (sc), vehicle: Klucel (hydroxypropylcellulose) (HPC)) was 32 % of control, the T/C (dose: 200.0 mg/kg/injection, schedule: Q01DX010 (sc), vehicle: Klucel (hydroxypropylcellulose) (HPC)) was -61 % of control and the T/C (dose: 200.0 mg/kg/injection, schedule: Q04DX003 (ip), vehicle: Klucel (hydroxypropylcellulose) (HPC)) was 3 % of control. For the same compound, the T/C [6] was 18 % of control.

In the case of C=CC(C)NC(=S)NNC(=S)NC (stereo unspecified), the T/C (dose: 300.0 mg/kg/injection, schedule: Q04DX003 (sc), vehicle: saline + alcohol) is reported as 85 % of control, the T/C (dose: 600.0 mg/kg/injection, schedule: Q04DX003 (sc), vehicle: saline + alcohol) is reported as 58 % of control and the T/C (dose: 1200.0 mg/kg/injection, schedule: Q04DX003 (sc), vehicle: saline + alcohol) is reported as 99 % of control.

With CN(C)CCCN=c1c2ccccc2n(C)c2[nH]c(=O)n(C)c(=O)c12 the T/C [7] was 112 % of control and the T/C [8] was 82 % of control.

For C[C@H]1C[C@@H]2[C@H]([C@@H](O)C[C@@]3(C)[C@H]2CC[C@]3(O)C(=O)CO)[C@@]2(C)C=CC(=O)C=C12, the T/C [6] was 37 % of control, the T/C (dose: 400.0 mg/kg/injection, schedule: Q04DX003 (sc), vehicle: Klucel (hydroxypropylcellulose) (HPC)) was 47 % of control and the T/C (dose: 800.0 mg/kg/injection, schedule: Q04DX003 (sc), vehicle: Klucel (hydroxypropylcellulose) (HPC)) was 37 % of control. For the same compound, the T/C (dose: 1600.0 mg/kg/injection, schedule: Q04DX003 (sc), vehicle: Klucel (hydroxypropylcellulose) (HPC)) was 19 % of control.

With C[C@@]1(CO)[C@H](O)CC[C@@]2(C)[C@H]1CC[C@H]1C[C@@H]3C[C@@]12CC[C@@]3(O)COC(=O)CN the T/C (dose: 50.0 mg/kg/injection, schedule: Q04DX003 (ip), vehicle: saline + alcohol) was 107 % of control and the T/C (dose: 100.0 mg/kg/injection, schedule: Q04DX003 (ip), vehicle: saline + alcohol) was 95 % of control.

With O=C1C2CC(Cl)C(SSC3CC4C(=O)N(SC(Cl)(Cl)C(Cl)Cl)C(=O)C4CC3Cl)CC2C(=O)N1SC(Cl)(Cl)C(Cl)Cl (stereo unspecified) the T/C (dose: 75.0 mg/kg/injection, schedule: Q04DX003 (ip), vehicle: saline with Tween-80) was 88 % of control and the T/C [5] was 45 % of control.

In the case of N#Cc1ccc(NN=O)nc1, the T/C (dose: 12.5 mg/kg/injection, schedule: Q04DX003 (ip), vehicle: other) is reported as 95 % of control, the T/C [1] is reported as 38 % of control and 41 % of control and the T/C (dose: 25.0 mg/kg/injection, schedule: Q04DX003 (ip), vehicle: other) is reported as 20 % of control. For the same compound, the T/C [2] was 7 % of control and 9 % of control, the T/C (dose: 50.0 mg/kg/injection, schedule: Q04DX003 (ip), vehicle: other) was 4 % of control and the T/C [3] was 1 % of control and 12 % of control. The T/C (dose: 100.0 mg/kg/injection, schedule: Q04DX003 (ip), vehicle: other) was -92 % of control and the T/C [4] was -86 % of control.

For COc1ccc(CC2C(=O)NC(C)C(=O)N(C)C3Cc4ccc(cc4)Oc4cc(ccc4O)CC(C(=O)NC(C)C(=O)NC(C)C(=O)N2C)N(C)C3=O)cc1 (stereo unspecified), the T/C (dose: 8.0 mg/kg/injection, schedule: Q04DX003 (sc), vehicle: saline with Tween-80) was 27 % of control, the T/C (dose: 16.0 mg/kg/injection, schedule: Q04DX003 (sc), vehicle: saline with Tween-80) was 25 % of control and the T/C (dose: 32.0 mg/kg/injection, schedule: Q04DX003 (sc), vehicle: saline with Tween-80) was 3 % of control.

In the case of CC(=O)Nc1ccc(Nc2ccc(C(=C3C=CC(=[N+](C)CCC#N)C=C3)c3ccc(N(C)CCC#N)cc3)cc2)cc1, the T/C (dose: 12.5 mg/kg/injection, schedule: Q04DX003 (ip), vehicle: saline) is reported as 45 % of control, the T/C [7] is reported as 80 % of control and the T/C [8] is reported as 63 % of control. The T/C (dose: 100.0 mg/kg/injection, schedule: Q04DX003 (ip), vehicle: saline) was 97 % of control, the T/C (dose: 100.0 mg/kg/injection, schedule: Q04DX003 (ip), vehicle: suspension in saline) was 84 % of control and the T/C (dose: 200.0 mg/kg/injection, schedule: Q04DX003 (ip), vehicle: suspension in saline) was 45 % of control.
